Data set [1] is described as follows: Measurement of molar absorption coefficients ε365, ε313 and ε365/ε313 in acetonitrile. Format: physicochemical. The source says:
(Measurement and Evaluation of ε365 and ε365/ε313)
The ε365 and ε313 of the compound β are molar absorption coefficients measured by dissolving the compound β in acetonitrile. In a case where the compound β was insoluble in acetonitrile, a solvent for dissolving the compound β may be appropriately changed.

Data set [2] is described as follows: Measurement of pKa of compound β in ground state (acid titration). The format is physicochemical. The text has this:
(Measurement of pKa of Compound β in Ground State)

[3] abbreviates: molar absorption coefficient at 365 nm in acetonitrile.

Read-outs that look alike come from different tables or passages of the source.

Take `Cc1cc(C)c2ccccc2n1` [Example B12, 2,4-dimethylquinoline]: in data set [1] (molar absorption coefficient at 365 nm in acetonitrile, listed as 2,4-Dimethylquinoline), the “ε365 of Compound β” value is reported as <10 (cm mol/L)^−1.
As for `Nc1ccncc1` [Example 4-Aminopyridine, 4-Aminopyridine], the “ε365 of Compound β” value in data set [1] (setting [3]) is <100 (cm mol/L)^−1.
Regarding `Clc1ccccn1` [Example 2-Chloropyridine, 2-Chloropyridine], the “ε365 of Compound β” value in data set [1] (setting [3]) was <10 (cm mol/L)^−1.
Still for that read-out and setting: the figure for `CCCCc1ncc(C)c2ccccc12` [Example 1-n-Butyl-4-methylisoquinoline, 1-n-Butyl-4-methylisoquinoline] is <10 (cm mol/L)^−1; for `Cc1nccc2ccccc12` [Example B6, 1-Me-isoquinoline] it is <10 (cm mol/L)^−1.
In the case of `c1ccc2nc3ccccc3cc2c1` [Example B3, acridine], the “ε365 of Compound β” value in data set [1] (setting [3]) is 4900 (cm mol/L)^−1. The “pKa of Compound β in ground state” value is reported as 4.67 in data set [2]; 4.67 in data set [2] (compound β alone); 4.67 in data set [2] (compound β alone, ground state); 4.67 in data set [2] (compound β in ground state); 4.67 in data set [2] (compound β, ground state); 4.67 in data set [2] (ground state).
In the case of `c1ccc2cnccc2c1` [Example B1, isoquinoline], in data set [1] (setting [3]), the “ε365 of Compound β” value is <10 (cm mol/L)^−1. Besides, the “pKa of Compound β in ground state” value in data set [2] is reported as 4.69; in data set [2] (compound β alone), 4.69; in data set [2] (compound β alone, ground state) it was 4.69; in data set [2] (compound β in ground state), 4.69; in data set [2] (compound β, ground state) it was 4.69; in data set [2] (ground state) it was 4.69.
Consider `CCCCc1nccc2ccccc12` [Example 1-n-Butylisoquinoline, 1-n-Butylisoquinoline], for which the “ε365 of Compound β” value in data set [1] (setting [3]) was <10 (cm mol/L)^−1.
Same read-out and setting: then `Cc1c2ccccc2nc2ccccc12` [Example 9-Methylacridine, 9-Methylacridine], with 6300 (cm mol/L)^−1.
Take `c1ccc(-c2c3ccccc3nc3ccccc23)cc1` [Example 9-Phenylacridine, 9-Phenylacridine]: the “ε365 of Compound β” value in data set [1] is listed as more than 10000; in data set [1] (molar absorption coefficient at 365 nm) it was more than 10000; in data set [1] (setting [3]) it was >10000 (cm mol/L)^−1.
As to `c1ccncc1` [Example B11, pyridine], the “ε365 of Compound β” value in data set [1] (setting [3]) is reported as <10 (cm mol/L)^−1.
Same read-out and setting: then `COc1cc(C)nc2ccccc12` [Example 2-Methyl-4-methoxyquinoline, 2-Methyl-4-methoxyquinoline], with <10 (cm mol/L)^−1.
`c1ccc2ncccc2c1` [Example B2, quinoline]: the “ε365 of Compound β” value in data set [1] (setting [3]) is <10 (cm mol/L)^−1. For the same compound, the “pKa of Compound β in ground state” value in data set [2] is listed as 4.15; in data set [2] (compound β alone) it was 4.15; in data set [2] (compound β alone, ground state), 4.15; in data set [2] (compound β in ground state) it was 4.15; in data set [2] (compound β, ground state), 4.15; in data set [2] (ground state), 4.15.
Turning to `Cc1cc(C)c2c(C)cc(C)nc2c1` [2,4,5,7-Tetramethylquinoline], the “ε365 of Compound β” value in data set [1] (setting [3]) is listed as <10 (cm mol/L)^−1.
Same read-out and setting: then `Cc1cc(C)c2ccccc2n1` [2,4-Dimethylquinolme], with <10 (cm mol/L)^−1.
